Data reported in patent US20060183794A1, “Drug composition containing nf-kb inhibitor” (priority 2002, published 2006).

Legend:
NF-κB = NF-κB (Homo sapiens, UniProt P19838+Q04206); test: Gel shift assay of NF-κB/DNA binding in TNF-α-treated MCF-7 cells; type: cell-based; design: endogenous in cells; host or cells: MCF-7 cells treated with TNF-α; conditions: 30 min
Method: MCF-7 cells (endowed by Professor Adrian L. Harriswere, Oxford University) were plated in portions of 4 ml at 1×10^5 cells/ml in […] (2 dishes per condition). On the next day, the culture medium in the 60 mm dishes was adjusted to 2 ml, treated with DHMEQ prepared at 1, 3, and 10 μg/ml for 2 hours, and subsequently, with TNF-α at 20 ng/ml. The culture medium in 60 mm dishes was extracted with a sucker 30 min after TNF-α treatment, cells were washed twice with PBS− for external application, 1 ml of cold PBS− was added, the cells were scraped with a rubber policeman (twice), and transferred to a 15 ml centrifuge tube. Cells were collected from two 60 mm dishes into a 15 ml centrifuge tube, centrifuged at 1,000 rpm for 5 min, and the supernatant was removed. To this, 700 μl of cold PBS− was added. […] The following operations were performed in ice. […] Next, collected nuclei were suspended in 40 μl buffer C (20 mM HEPES-KOH: pH7.9 […] 25% glycerol, 420 mM NaCl, 1.5 mM MgCl2, 0.2 mM EDTA, 0.5 mM DTT, 0.2 mM PMSF) and allowed to stand for 20 min. […]
Next, a Nick column was installed in the stand and a waste-liquid bottle was placed under the column. […] The column, fraction 1, and fraction 2 were measured individually with a Geiger counter and the readings confirmed fraction 2>the column>fraction 1. […]

HUVECs = test: Toxicity to and proliferation of HUVECs; type: cell-based, human; conditions: DHMEQ 3 μg/ml

Sequence of NF-κB (Q04206 whole entry): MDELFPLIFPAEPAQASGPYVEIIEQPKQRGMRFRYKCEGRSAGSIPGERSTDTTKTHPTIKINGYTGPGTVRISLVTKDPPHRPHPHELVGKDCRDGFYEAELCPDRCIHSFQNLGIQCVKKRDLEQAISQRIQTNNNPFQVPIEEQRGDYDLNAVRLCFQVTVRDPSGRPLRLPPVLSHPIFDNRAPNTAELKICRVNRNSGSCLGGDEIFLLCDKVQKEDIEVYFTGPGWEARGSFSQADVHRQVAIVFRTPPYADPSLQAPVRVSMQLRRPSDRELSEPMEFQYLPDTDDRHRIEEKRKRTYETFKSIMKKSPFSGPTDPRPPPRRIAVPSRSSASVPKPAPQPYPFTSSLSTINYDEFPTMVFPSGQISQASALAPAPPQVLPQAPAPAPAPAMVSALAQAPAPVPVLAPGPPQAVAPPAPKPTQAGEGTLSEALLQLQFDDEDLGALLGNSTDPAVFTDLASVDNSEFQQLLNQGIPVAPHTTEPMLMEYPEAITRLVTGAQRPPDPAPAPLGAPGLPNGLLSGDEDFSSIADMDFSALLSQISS
Sequence of NF-κB (P19838 1-433 limits assumed): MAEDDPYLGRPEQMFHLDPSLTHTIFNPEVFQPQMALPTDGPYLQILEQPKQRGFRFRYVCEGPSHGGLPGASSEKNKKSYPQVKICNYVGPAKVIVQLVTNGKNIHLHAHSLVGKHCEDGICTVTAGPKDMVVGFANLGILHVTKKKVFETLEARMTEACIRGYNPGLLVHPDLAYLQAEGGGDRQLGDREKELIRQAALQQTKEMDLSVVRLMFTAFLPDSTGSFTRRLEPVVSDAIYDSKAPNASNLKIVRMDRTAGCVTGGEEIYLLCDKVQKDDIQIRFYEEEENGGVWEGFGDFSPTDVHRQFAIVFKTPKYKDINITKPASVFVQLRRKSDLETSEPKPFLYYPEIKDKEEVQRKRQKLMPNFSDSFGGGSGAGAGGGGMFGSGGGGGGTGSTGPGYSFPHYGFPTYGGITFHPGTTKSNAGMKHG

In the case of `O=C(NC1=CC(=O)C2OC2C1O)c1ccccc1O` (stereo not drawn) [DHMEQ, 5,6-epoxy-4-hydroxy-3-salicyloylamino-2-cyclohexenone], the “binding between NF-κB and DNA” value (NF-κB; DHMEQ 10 μg/ml, TNF-α 20 ng/ml) is reported as “completely inhibited”, the “binding between NF-κB and DNA” value (NF-κB; DHMEQ 1, 3, 10 μg/ml for 2 hours, then TNF-α 20 ng/ml) is reported as “concentration-dependently inhibited” and the “toxicity to HUVECs and suppression of their proliferation” value (HUVECs) is reported as “neither exhibited toxicity to HUVECs nor suppressed their proliferation”.
